From US8816085B2 (Takeda GmbH, priority 2009, dated 2014)

Biological target: T1, PDE5A1 (human PDE5 from platelets) (Homo sapiens, UniProt O76074)
T1 construct: from tissue; host or cells: platelets from fresh blood of human donors (10,000 g supernatant of sonified platelets)
Experiment: Inhibition of type 5 phosphodiesterase (PDE5) activity, modified SPA test
Format: biochemical
Settings: PDE5-containing human platelet lysate, 0.5 μM cGMP, value classes, read-out: PDE5A1 inhibitory values [measured as −logIC50 (mol/l)] (converted)
Description: Method for Measuring Inhibition of the Type 5 Phosphodiesterase (PDE5) Activity:
As a source for human PDE5, platelets are used. For that purpose, 150 ml fresh blood from human donors anticoagulated with citrate [final concentration 0.3% (w/v)] is centrifuged at 200 g for 10 min to obtain the so-called platelet-rich-plasma (PRP) as a supernatant. 1/10 volume of ACD solution (85 mM Na3-citrate, 111 mM D-glucose, 71 mM citric acid, pH 4.4) is added to 9/10 volume of PRP. After centrifugation (1,400 g, 10 min) the cell pellet is resuspended in 3 ml homogenization buffer (NaCl 140 mM, KCl 3.8 mM, EGTA (ethylene glycol tetraacetic acid) 1 mM, MgCl2 1 mM, Tris-HCl 20 mM, beta-mercaptoethanol 1 mM, pH 8.2) plus protease-inhibitor mix giving rise to the final concentrations of 0.5 mM Pefablock (Roche), 10 μM Leupeptin, 5 μM Trypsininhibitor, 2 mM Benzamidin and 10 μM Pepstatin A. The suspension is sonified and thereafter centrifuged for 15 min at 10,000 g. The resulting supernatant (platelet lysate) is used for enzymatic testings.
PDE5A1 activity is inhibited by the compounds of the present subject matter in a modified SPA (scintillation proximity assay) test, supplied by Amersham Biosciences (see procedural instructions “phosphodiesterase [3H]cAMP SPA enzyme assay, code TRKQ 7090”), carried out in 96-well microtitre plates (MTP's). The test volume is 100 μl and contains 20 mM Tris buffer (pH 7.4), 0.1 mg of BSA (bovine serum albumin)/ml, 5 mM Mg^2+, 1 μM motapizone, 10 nM PDE2 inhibitor 2-(3,4-dimethoxybenzyl)-7-[(1R,2R)-2-hydroxy-1-(2-phenylethyl)propyl]-5-methylimidazo[5,1-t][1,2,4]triazin-4(3H)-one, 0.5 μM cGMP (cyclic guanosine monophosphate) (including about 50,000 cpm of [3H]cGMP as a tracer), 1 μl of the respective compound dilution in dimethylsulfoxide (DMSO) and sufficient PDE5-containing platelet lysat (10,000×g supernatant, see above) to ensure that 10-20 wt % of the cGMP is converted under the said experimental conditions. […] After a preincubation of 5 min at 37° C., the reaction is started by adding the substrate (cGMP) and the assay is incubated for a further 15 min; after that, it is stopped by adding SPA beads (50 μl). In accordance with the manufacturer's instructions, the SPA beads had previously been resuspended in water, but are then diluted 1:3 (v/v) in water; the diluted solution also contains 3 mM 8-methoxymethyl-3-isobutyl-1-methylxanthine (IBMX) to ensure a complete PDE activity stop. After the beads have been sedimented (>30 min), the MTP's are analyzed in commercially available luminescence detection devices. The corresponding IC50 values of the compounds for the inhibition of PDE activity are determined from the concentration-effect curves by means of non-linear regression.

Compound | IC50 [nM]
Cc1ccc(OCC2CC2)c(-c2ccnc3c(C(=O)N[C@H]4CC[C@H](NC(=O)[C@H](C)O)CC4)c(C)[nH]c23)c1 [Example F37, 7-[2-(Cyclopropylmethoxy)-5-methylphenyl]-N-(trans-4-{[(2S)-2-hydroxypropanoyl]amino}cyclohexyl)-2-methyl-1H-pyrrolo[3,2-b]pyridine-3-carboxamide] | 1 to 10
CCOC(=O)N1CCC(NC(=O)c2c(C)[nH]c3c(-c4c(OCC5CC5)ccc5c4OCO5)ccnc23)CC1 [Example E04, Ethyl 4-[({7-[5-(cyclopropylmethoxy)-1,3-benzodioxol-4-yl]-2-methyl-1H-pyrrolo[3,2-b]pyridin-3-yl}carbonyl)amino]piperidine-1-carboxylate] | < 1
Cc1[nH]c2c(-c3cc(F)ccc3OCC3CC3)ccnc2c1C(=O)N[C@H]1CC[C@H](NC(=O)[C@H](C)O)CC1 [Example F15, 7-[2-(Cyclopropylmethoxy)-5-fluorophenyl]-N-(trans-4-{[(2S)-2-hydroxypropanoyl]amino}cyclohexyl)-2-methyl-1H-pyrrolo[3,2-b]pyridine-3-carboxamide] | < 1
CCC(=O)N1CCC(NC(=O)c2c(C)[nH]c3c(-c4cc(F)ccc4OCC4CC4)ccnc23)CC1 [Example E20, 7-[2-(Cyclopropylmethoxy)-5-fluorophenyl]-2-methyl-N-(1-propanoylpiperidin-4-yl)-1H-pyrrolo[3,2-b]pyridine-3-carboxamide] | < 1
COCC(=O)N1CCC(NC(=O)c2c(C)[nH]c3c(-c4ccc(OC)cc4OCC4CC4)ccnc23)CC1 [Example E33, 7-[2-(Cyclopropylmethoxy)-4-methoxyphenyl]-N-[1-(methoxyacetyl)piperidin-4-yl]-2-methyl-1H-pyrrolo[3,2-b]pyridine-3-carboxamide] | < 1
CC(=O)N[C@H]1CC[C@@H](NC(=O)c2c(C)[nH]c3c(-c4c(OCC5CC5)ccc5c4OCO5)ccnc23)CC1 [Example E06, N-(cis-4-acetamidocyclohexyl)-7-[5-(cyclopropylmethoxy)-1,3-benzodioxol-4-yl]-2-methyl-1H-pyrrolo[3,2-b]pyridine-3-carboxamide] | < 1
Cc1[nH]c2c(-c3ccc(F)cc3OCC3CC3)ccnc2c1C(=O)N[C@H]1CC[C@H](NC(=O)CO)CC1 [Example F08, 7-[2-(Cyclopropylmethoxy)-4-fluorophenyl]-N-{trans-4-[(hydroxyacetyl)amino]cyclohexyl}-2-methyl-1H-pyrrolo[3,2-b]pyridine-3-carboxamide] | 1 to 10
Cc1[nH]c2c(-c3ccc(F)cc3OCC3CC3)ccnc2c1C(=O)N[C@H]1CC[C@@H](NC(=O)[C@H](C)O)CC1 [Example F11, 7-[2-(Cyclopropylmethoxy)-4-fluorophenyl]-N-(cis-4-{[(2S)-2-hydroxypropanoyl]amino}cyclohexyl)-2-methyl-1H-pyrrolo[3,2-b]pyridine-3-carboxamide] | 1 to 10
Cc1[nH]c2c(-c3cc(F)ccc3OCC3CC3)ccnc2c1C(=O)N[C@H]1CC[C@@H](NC(=O)[C@H](C)O)CC1 [Example F17, 7-[2-(Cyclopropylmethoxy)-5-fluorophenyl]-N-(cis-4-{[abs.(2S)-2-hydroxypropanoyl]amino}cyclohexyl)-2-methyl-1H-pyrrolo[3,2-b]pyridine-3-carboxamide] | 1 to 10
COc1ccc(-c2ccnc3c(C(=O)N[C@H]4CC[C@@H](NC(C)=O)CC4)c(C)[nH]c23)c(OCC2CC2)c1 [Example E37, N-[cis-4-(Acetylamino)cyclohexyl]-7-[2-(cyclopropylmethoxy)-4-methoxyphenyl]-2-methyl-1H-pyrrolo[3,2-b]pyridine-3-carboxamide] | < 1
CC(=O)N[C@H]1CC[C@@H](NC(=O)c2c(C)[nH]c3c(-c4ccc(F)cc4OCC4CC4)ccnc23)CC1 [Example E16, N-[cis-4-(Acetylamino)cyclohexyl]-7-[2-(cyclopropylmethoxy)-4-fluorophenyl]-2-methyl-1H-pyrrolo[3,2-b]pyridine-3-carboxamide] | 1 to 10
Cc1ccc(OCC2CC2)c(-c2ccnc3c(C(=O)NC4CCN(C(=O)CO)CC4)c(C)[nH]c23)c1 [Example F34, 7-[2-(Cyclopropylmethoxy)-5-methylphenyl]-N-[1-(hydroxyacetyl)piperidin-4-yl]-2-methyl-1H-pyrrolo[3,2-b]pyridine-3-carboxamide] | 1 to 10
CCC(=O)N[C@H]1CC[C@@H](NC(=O)c2c(C)[nH]c3c(-c4cc(F)c(OC)cc4OCC4CC4)ccnc23)CC1 [Example E83, 7-[2-(Cyclopropylmethoxy)-5-fluoro-4-methoxyphenyl]-2-methyl-N-[cis-4-(propionylamino)cyclohexyl]-1H-pyrrolo[3,2-b]pyridine-3-carboxamide] | < 1
COc1cc(-c2ccnc3c(C(=O)N[C@H]4CC[C@H](NC(=O)CO)CC4)c(C)[nH]c23)c(OCC2CC2)cc1F [Example F42, 7-[2-(Cyclopropylmethoxy)-4-fluoro-5-methoxyphenyl]-N-{trans-4-[(hydroxyacetyl)amino]cyclohexyl}-2-methyl-1H-pyrrolo[3,2-b]pyridine-3-carboxamide] | < 1
COc1ccc(OCC2CC2)c(-c2ccnc3c(C(=O)N[C@H]4CC[C@@H](NC(=O)[C@H](C)O)CC4)c(C)[nH]c23)c1 [Example F31, 7-[2-(Cyclopropylmethoxy)-5-methoxyphenyl]-N-(cis-4-{[(2S)-2-hydroxypropanoyl]amino}cyclohexyl)-2-methyl-1H-pyrrolo[3,2-b]pyridine-3-carboxamide] | < 1
CCC(=O)N[C@H]1CC[C@H](NC(=O)c2c(C)[nH]c3c(-c4cc(F)ccc4OCC4CC4)ccnc23)CC1 [Example E23, 7-[2-(Cyclopropylmethoxy)-5-fluorophenyl]-2-methyl-N-[trans-4-(propanoylamino)cyclohexyl]-1H-pyrrolo[3,2-b]pyridine-3-carboxamide] | < 1
CC(=O)N[C@H]1CC[C@@H](NC(=O)c2c(C)[nH]c3c(-c4cc(F)ccc4OCC4CC4)ccnc23)CC1 [Example E25, N-[cis-4-(Acetylamino)cyclohexyl]-7-[2-(cyclopropylmethoxy)-5-fluorophenyl]-2-methyl-1H-pyrrolo[3,2-b]pyridine-3-carboxamide] | 1 to 10
CCC(=O)N[C@H]1CC[C@H](NC(=O)c2c(C)[nH]c3c(-c4cc(F)c(OC)cc4OCC4CC4)ccnc23)CC1 [Example E80, 7-[2-(Cyclopropylmethoxy)-5-fluoro-4-methoxyphenyl]-2-methyl-N-[trans-4-(propionylamino)cyclohexyl]-1H-pyrrolo[3,2-b]pyridine-3-carboxamide] | < 1
CC(=O)N[C@H]1CC[C@H](NC(=O)c2c(C)[nH]c3c(-c4ccc(F)cc4OCC4CC4)ccnc23)CC1 [Example E13, N-[trans-4-(Acetylamino)cyclohexyl]-7-[2-(cyclopropylmethoxy)-4-fluorophenyl]-2-methyl-1H-pyrrolo[3,2-b]pyridine-3-carboxamide] | < 1
COc1ccc(OCC2CC2)c(-c2ccnc3c(C(=O)N[C@H]4CC[C@H](NC(=O)[C@H](C)O)CC4)c(C)[nH]c23)c1 [Example F29, 7-[2-(Cyclopropylmethoxy)-5-methoxyphenyl]-N-(trans-4-{[abs.(2S)-2-hydroxypropanoyl]amino}cyclohexyl)-2-methyl-1H-pyrrolo[3,2-b]pyridine-3-carboxamide] | < 1
COc1cc(-c2ccnc3c(C(=O)N[C@H]4CC[C@@H](NC(=O)CO)CC4)c(C)[nH]c23)c(OCC2CC2)cc1F [Example F44, 7-[2-(Cyclopropylmethoxy)-4-fluoro-5-methoxyphenyl]-N-{cis-4-[(hydroxyacetyl)amino]cyclohexyl}-2-methyl-1H-pyrrolo[3,2-b]pyridine-3-carboxamide] | < 1
COc1ccc(-c2ccnc3c(C(=O)N[C@H]4CC[C@@H](NC(=O)CO)CC4)c(C)[nH]c23)c(OCC2CC2)c1 [Example F24, 7-[2-(Cyclopropylmethoxy)-4-methoxyphenyl]-N-{cis-4-[(hydroxyacetyl)amino]cyclohexyl}-2-methyl-1H-pyrrolo[3,2-b]pyridine-3-carboxamide] | < 1
